This note sets out measurements from ChEMBL document CHEMBL1201862, “PubChem BioAssay data set” (2004).

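Method: 48-hour compound exposure of cells in 96-well plates, five concentrations, linear interpolation of endpoints. GI50 = concentration required for 50% inhibition of growth.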 Activity calls are given as the source filed them. Rule as the data show it: active = GI50 up to about 1.1 µM and inactive = higher.

Test systems include KM12; SR; SK-MEL-2; SK-OV-3; SN12C; NCI-H23; SK-MEL-5; HOP-62; LXFL 529; NCI-H460; HCT-15; SF-268; UACC-62; HT-29; SW-620; COLO 205; K562; HOP-92; MDA-MB-231; T47D.
Holding throughout (test): NCI anticancer screen, dose series, 48 h

As for `O=C1N(c2ccccc2)C2(O)C(=O)c3ccccc3C2(O)N1c1ccccc1` (stereo not drawn), the GI50 with KM12, in the assay on SR, with SK-MEL-2, with SK-OV-3, in the assay on SN12C and in the assay on NCI-H23 was > 100 µM (inactive) throughout. For the same compound, the GI50 was > 100 µM (inactive) in the assay on SK-MEL-5; > 100 µM (inactive) with HOP-62; > 100 µM (inactive) in the assay with LXFL 529; > 100 µM (inactive) in the assay on NCI-H460; more than 100 µM in the assay on HCT-15; > 100 µM (inactive) with SF-268. For the same compound, the GI50 in the assay on UACC-62, in the assay with HT-29, in the assay with SW-620, in the assay with COLO 205 and in the assay with K562 was > 100 µM (inactive) throughout.

Turning to `COC(=O)NN=C1C(C)(C)C(=NNC(=O)OC)C1(C)C`, the GI50 is > 100 µM (inactive) in the assay with KM12; > 100 µM (inactive) in the assay with SK-MEL-2; > 100 µM (inactive) in the assay on SK-OV-3; > 68.2 µM (inactive) in the assay on SN12C; > 48.9 µM (inactive) with NCI-H23; > 100 µM (inactive) in the assay with HOP-92. For the same compound, the GI50 in the assay with SK-MEL-5 is > 100 µM (inactive); with HOP-62 it was > 100 µM (inactive); in the assay on LXFL 529, > 100 µM (inactive); in the assay on NCI-H460, > 100 µM (inactive); in the assay with HCT-15, more than 90.6 µM; in the assay on SF-268, > 84.1 µM (inactive). In addition, the GI50 in the assay with UACC-62 is > 100 µM (inactive); with HT-29, > 36.9 µM (inactive); with SW-620 it was > 100 µM (inactive); in the assay on COLO 205 it was > 41.6 µM (inactive); in the assay on K562, > 100 µM (inactive).

Consider `Cc1cc(C)cc(-n2c3nc(=O)n(C)c(=O)c-3nc3ccccc32)c1`, for which the GI50 is 27.1 µM (inactive) in the assay on KM12; 22.9 µM (inactive) with SK-MEL-2; > 100 µM (inactive) in the assay on SK-OV-3; 26.8 µM (inactive) with SN12C; 15.7 µM (inactive) in the assay with NCI-H23; 15.8 µM (inactive) in the assay on SK-MEL-5. In addition, the GI50 in the assay with HOP-62 was 45.4 µM (inactive); in the assay on LXFL 529, 48.4 µM (inactive); in the assay on NCI-H460, 23.9 µM (inactive); in the assay with HCT-15, 21 µM; in the assay on SF-268 it was 65.6 µM (inactive); in the assay on UACC-62, 16.7 µM (inactive). The GI50 in the assay on HT-29 is 10.3 µM (inactive); in the assay on SW-620, 17 µM (inactive); with COLO 205, 7.29 µM (inactive); in the assay with K562, 22.1 µM (inactive).

As for `CC(=O)CC(=O)Nc1ccccc1C(F)(F)F`, the GI50 in the assay on SK-MEL-2, in the assay on SK-OV-3, in the assay on SN12C, in the assay on NCI-H23, in the assay with HOP-92 and with SK-MEL-5 was > 100 µM (inactive) in each case. The GI50 in the assay with HOP-62 was > 100 µM (inactive); with LXFL 529 it was > 100 µM (inactive); in the assay on NCI-H460 it was > 100 µM (inactive); with HCT-15, more than 100 µM; in the assay on SF-268 it was > 100 µM (inactive); with UACC-62, > 100 µM (inactive). The GI50 in the assay with SW-620, in the assay on COLO 205 and in the assay with K562 was > 100 µM (inactive) each time.

With `Clc1ccc(C[P+]2(c3ccccc3)CCCCC2)cc1.[O-][Cl+3]([O-])([O-])[O-]`, the GI50 in the assay with KM12 was 77.4 µM (inactive); in the assay with SR it was 48.6 µM (inactive); in the assay with SK-MEL-2, 48.6 µM (inactive); in the assay with SK-OV-3, > 100 µM (inactive); with SN12C it was > 100 µM (inactive); in the assay on NCI-H23, 85.5 µM (inactive). The GI50 in the assay on SK-MEL-5 was 20.3 µM (inactive); in the assay with HOP-62, > 100 µM (inactive); in the assay with LXFL 529 it was 37.1 µM (inactive); in the assay on NCI-H460, > 100 µM (inactive); in the assay on HCT-15 it was more than 100 µM; in the assay with UACC-62, 37.2 µM (inactive). The GI50 in the assay with HT-29 is 32 µM (inactive); with SW-620 it was 80 µM (inactive); in the assay with COLO 205, 17.9 µM (inactive); in the assay with K562, 78.2 µM (inactive).

On to `CC1=C(C(=O)Nc2cc(=O)n(C)c(=O)n2C)C(c2ccc([N+](=O)[O-])cc2)C(C(=O)Nc2cc(=O)n(C)c(=O)n2C)=C(C)N1`, for which the GI50 in the assay with KM12 was > 100 µM (inactive); in the assay on SK-MEL-2, > 100 µM (inactive); in the assay with SK-OV-3, 32.3 µM (inactive); in the assay with SN12C, > 100 µM (inactive); in the assay with NCI-H23, > 100 µM (inactive); in the assay on HOP-92 it was 26.7 µM (inactive). The GI50 in the assay with HOP-62 was 18.1 µM (inactive); in the assay on LXFL 529, 51.8 µM (inactive); with NCI-H460, > 100 µM (inactive); with HCT-15, more than 100 µM; with SF-268, > 100 µM (inactive); in the assay with UACC-62, 26.5 µM (inactive). The GI50 is > 100 µM (inactive) in the assay with HT-29, > 100 µM (inactive) in the assay with SW-620, > 100 µM (inactive) with COLO 205 and 75.5 µM (inactive) in the assay with K562.

Consider `C/C1=C\CC[C@@]2(C)O[C@@H]2C[C@@H]2[C@H](C/C(C)=C/CC1)OC(=O)[C@]21CO1`, for which the GI50 in the assay with MDA-MB-231 was > 100 µM (inactive); in the assay on T47D it was > 100 µM (inactive); with KM12 it was 28.8 µM (inactive); with SR, 36.7 µM (inactive); in the assay on SK-MEL-2, > 100 µM (inactive); with SK-OV-3 it was > 100 µM (inactive). Also, the GI50 was 74.5 µM (inactive) in the assay on SN12C; > 100 µM (inactive) in the assay with NCI-H23; > 100 µM (inactive) in the assay on HOP-92; > 100 µM (inactive) with SK-MEL-5; > 100 µM (inactive) with HOP-62; 20.7 µM (inactive) in the assay on NCI-H460. Moreover, the GI50 is more than 100 µM in the assay on HCT-15; > 100 µM (inactive) in the assay with SF-268; 75.5 µM (inactive) in the assay on UACC-62; 69.3 µM (inactive) in the assay with HT-29; 68.7 µM (inactive) in the assay with SW-620; > 100 µM (inactive) in the assay on COLO 205. In addition, the GI50 in the assay on K562 is 34.4 µM (inactive).

Regarding `CCC1CC2C(=O)N(c3ccccc3)C(=O)C2c2[nH]c3ccccc3c21` (stereo not drawn), the GI50 is 31.2 µM (inactive) in the assay with KM12; 23.1 µM (inactive) in the assay on SR; 13.6 µM (inactive) with SK-OV-3; 19.6 µM (inactive) in the assay with SN12C; 71.8 µM (inactive) in the assay on NCI-H23; 30.8 µM (inactive) with SK-MEL-5. In addition, the GI50 in the assay with LXFL 529 was 20.2 µM (inactive); with NCI-H460 it was 15.8 µM (inactive); in the assay on HCT-15, 60.8 µM; in the assay on SF-268, 24.5 µM (inactive); with UACC-62, 19.5 µM (inactive); in the assay on HT-29 it was 22.2 µM (inactive). The GI50 was 46.1 µM (inactive) in the assay with SW-620, 22 µM (inactive) with COLO 205 and 25.4 µM (inactive) with K562.

With `COc1cc(C(O)c2ccc3c(c2)OCO3)cc(OC)c1OC` (stereo not drawn), the GI50 was > 100 µM (inactive) in the assay with MDA-MB-231; 37.1 µM (inactive) in the assay with T47D; > 100 µM (inactive) with KM12; > 100 µM (inactive) with SR; > 100 µM (inactive) in the assay on SK-MEL-2; > 100 µM (inactive) in the assay on SK-OV-3. The GI50 was > 100 µM (inactive) in the assay with SN12C; > 100 µM (inactive) in the assay on NCI-H23; > 100 µM (inactive) in the assay with HOP-92; 80.2 µM (inactive) in the assay with SK-MEL-5; > 100 µM (inactive) in the assay with HOP-62; > 100 µM (inactive) with NCI-H460. Further, the GI50 in the assay on HCT-15 is more than 100 µM; in the assay on SF-268, > 100 µM (inactive); in the assay with UACC-62, > 100 µM (inactive); in the assay with HT-29 it was > 100 µM (inactive); in the assay with SW-620, > 100 µM (inactive); in the assay on COLO 205, > 100 µM (inactive). Moreover, the GI50 in the assay with K562 was > 100 µM (inactive).

As for `COc1cc2c(cc1O)Cc1c-2[n+](C)cc2cc(OC)c(OC)cc12`, the GI50 in the assay on MDA-MB-231 is > 100 µM (inactive); in the assay on T47D, 19.1 µM (inactive); in the assay with KM12, > 59.6 µM (inactive); with SR, 0.118 µM (active); with SK-MEL-2, > 100 µM (inactive); with SK-OV-3, > 35.6 µM (inactive). The GI50 is 4.8 µM (inactive) in the assay on SN12C; 12.6 µM (inactive) with NCI-H23; > 77.3 µM (inactive) with HOP-92; 6.76 µM (inactive) in the assay on SK-MEL-5; 6.61 µM (inactive) in the assay on HOP-62; 3.28 µM (inactive) in the assay on NCI-H460. Further, the GI50 with HCT-15 was 24.4 µM; in the assay on SF-268 it was 0.472 µM (active); with UACC-62, 7.43 µM (inactive); in the assay on HT-29 it was > 83 µM (inactive); in the assay on SW-620, 33.4 µM (inactive); in the assay with COLO 205, > 74.3 µM (inactive). In addition, the GI50 with K562 was 1.93 µM (inactive).

As for `CC(C)(C)OC(=O)NC1CCCCC1NC(=O)C(=O)NC1CCCCC1NC(=O)OC(C)(C)C` (stereo not drawn), the GI50 in the assay on MDA-MB-231 is 27.2 µM (inactive); in the assay with T47D it was > 100 µM (inactive); in the assay on KM12, > 100 µM (inactive); in the assay with SR it was > 100 µM (inactive); in the assay with SK-MEL-2 it was 59 µM (inactive); in the assay with SK-OV-3 it was 44.2 µM (inactive). Moreover, the GI50 with SN12C is > 100 µM (inactive); in the assay with NCI-H23, > 100 µM (inactive); with HOP-92 it was 13.5 µM (inactive); in the assay on SK-MEL-5 it was > 100 µM (inactive); in the assay with HOP-62, 19.3 µM (inactive); with NCI-H460, > 100 µM (inactive). The GI50 is more than 100 µM in the assay on HCT-15; 37.2 µM (inactive) in the assay with SF-268; 24 µM (inactive) in the assay with UACC-62; > 100 µM (inactive) in the assay on HT-29; > 100 µM (inactive) in the assay with SW-620; > 100 µM (inactive) in the assay with COLO 205. Also, in the assay with K562, the GI50 was > 100 µM (inactive).
